The values below come from patent US20050250822A1, “Substituted benzanilide compound and noxious organism controlling agent” (priority 2002, published 2005).

Assay [1] deals with Common cutworms (Spodoptera litura) with second instar larvae. Nature of the assay: Insecticidal test against common cutworm (leaf dip). The class given is in vivo. The conditions noted are these: foliar, 144 h, read-out: insecticidal rate (rate of dead insects). The protocol:
Insecticidal Test Against Common Cutworm
(§1) A 10% emulsifiable concentrate (depending on the compounds, 25% wettable powder was applied for the test) of the compound of the present invention was diluted with water containing a spreading agent to prepare a chemical solution with a concentration of 100 ppm. To the chemical solution was dipped leaves of Chinese olive for about 10 seconds, and after air-drying, they were placed in a laboratory dish, then, 10 Common cutworms (Spodoptera litura) with second instar larvae per the dish were released therein, and the dish was covered with a lid having holes and contained at a thermostat chamber at 25° C. A number of dead insect(s) after 6 days was counted and a rate of dead insects was calculated by the following calculation formula. Incidentally, the test was carried out with two districts. Rate of dead insects (%)=(Number of dead insects/Number of released insects)×100

The test system of assay [2] is diamondback moths (Plutella xylostella) with second instar larvae. Nature of the assay: Insecticidal test against diamondback moth (leaf dip). The class given is in vivo. To be noted: foliar, 144 h, read-out: insecticidal rate (rate of dead insects). The protocol:
Insecticidal Test Against Diamondback Moth
as §1, with “diamondback moths (Plutella xylostella)” for “Common cutworms (Spodoptera litura)”, “in” for “by”, “same manner as in Test Example 1.” for “following calculation formula.”, “districts.” for “districts. Rate of dead insects (%)=(Number of dead insects/Number of released insects)×100”

[3] abbreviates: chemical solution 100 ppm, leaf dip, 25° C., dead insects counted after 6 days.

Read-outs that look alike come from different tables or passages of the source. Bounds are passed on as bounds.

Regarding `CC1=NOC(c2ccc(NC(=O)c3cccc(I)c3C(=O)NC(C)C)c(C)c2)(C(F)(F)F)C1` (stereo not drawn) [1-006, 3-Iodo-N^2-isopropyl-N^1-[2-methyl-4-(3-methyl-5-trifluoromethyl-4,5-dihydroisoxazol-5-yl)phenyl]phthalic diamide], the pest or weed control at 100 ppm in assay [1] (setting [3]) and in assay [2] (setting [3]) was at least 80% throughout.
For `CC1=NOC(c2ccc(NC(=O)c3c(I)cccc3C(=O)NC(C)C)c(C)c2)(C(F)(F)F)C1` (stereo not drawn) [1-007, 6-iodo-N^2-isopropyl-N^1-[2-methyl-4-(3-methyl-5-trifluoromethyl-4,5-dihydroisoxazol-5-yl)phenyl]phthalic diamide], the pest or weed control at 100 ppm in assay [2] (setting [3]) is at least 80%.
Turning to `Cc1cc(C2(C(F)(F)F)CC(C(F)(F)F)=NO2)ccc1NC(=O)c1cccc(I)c1C(=O)NC(C)C` (stereo not drawn) [1-013, 3-Iodo-N^2-isopropyl-N^1-[2-methyl-4-(3,5-bistrifluoromethyl-4,5-dihydroisoxazol-5-yl)phenyl]phthalic diamide], the pest or weed control at 100 ppm in assay [2] (setting [3]) is at least 80%.
The same measure, in the same setting: to `CCOC(=O)C1=NOC(c2ccc(NC(=O)c3c(I)cccc3C(=O)NC(C)C)c(C)c2)(C(F)(F)F)C1` (stereo not drawn) [1-020, N^1-[4-(3-ethoxycarbonyl-5-trifluoromethyl-4,5-dihydroisoxazol-5-yl)-2-methylphenyl]-6-iodo-N^2-isopropylphthalic diamide] belongs at least 80%.
As for `Cc1cc(C2(C(F)(F)F)CC(n3cncn3)=NO2)ccc1NC(=O)c1cccc(I)c1C(=O)NC(C)C` (stereo not drawn) [1-032, 3-Iodo-N^2-isopropyl-N^1-[4-[3-(1,2,4-triazol-1-yl)-5-trifluoromethyl-4,5-dihydroisoxazol-5-yl]-2-methylphenyl]phthalic diamide], the pest or weed control at 100 ppm in assay [1] (setting [3]) and in assay [2] (setting [3]) was at least 80% throughout.
Turning to `Cc1cc(C2(C3CC3)CC(c3ccc(Cl)cc3)=NO2)ccc1NC(=O)c1cccc(I)c1C(=O)NC(C)C` (stereo not drawn) [2-013, N^1-[4-[3-(4-chlorophenyl)-5-cyclopropyl-4,5-dihydroisoxazol-5-yl]-2-methylphenyl]-3-iodo-N 2-isopropylphthalic diamide], the pest or weed control at 100 ppm in assay [1] (setting [3]) and in assay [2] (setting [3]) was at least 80% in each case.
For `Cc1cc(C2(C(F)(F)F)CC(c3ccc(F)cc3)=NO2)ccc1NC(=O)c1cccc(I)c1C(=O)NC(C)C` (stereo not drawn) [2-016, N^1-[4-[3-(4-fluorophenyl)-5-trifluoromethyl-4,5-dihydroisoxazol-5-yl]-2-methylphenyl]-3-iodo-N^2-isopropylphthalic diamide], the pest or weed control at 100 ppm in assay [1] (setting [3]) and in assay [2] (setting [3]) was at least 80% throughout.
Take `Cc1cc(C2(C(F)(F)F)CC(c3ccc([S+](C)[O-])cc3)=NO2)ccc1NC(=O)c1cccc(I)c1C(=O)NC(C)C` (stereo not drawn) [2-037, 3-Iodo-N 2 isopropyl-N^1-[4-[3-(4-methylsulfinylphenyl)-5-trifluoromethyl-4,5-dihydroisoxazol-5-yl]-2-methylphenyl]phthalic diamide]: the pest or weed control at 100 ppm in assay [1] (setting [3]) and in assay [2] (setting [3]) was at least 80% each time.
In the case of `Cc1cc(C2(C(F)(F)F)CC(c3ccc(C#N)cc3)=NO2)ccc1NC(=O)c1cccc(I)c1C(=O)NC(C)C` (stereo not drawn) [2-046, N^1-[4-[3-(4-cyanophenyl)-5-trifluoromethyl-4,5-dihydroisoxazol-5-yl]-2-methylphenyl]-3-iodo-N^2-isopropylphthalic diamide], the pest or weed control at 100 ppm in assay [1] (setting [3]) and in assay [2] (setting [3]) was at least 80% each time.
Regarding `Cc1cc(C2(C(F)(F)F)CC(c3ccc(C(N)=O)cc3)=NO2)ccc1NC(=O)c1cccc(I)c1C(=O)NC(C)C` (stereo not drawn) [2-048, N^1-[4-[3-(4-carbamoylphenyl)-5-trifluoromethyl-4,5-dihydroisoxazol-5-yl]-2-methylphenyl]-3-iodo-N^2-isopropylphthalic diamide], the pest or weed control at 100 ppm in assay [1] (setting [3]) and in assay [2] (setting [3]) was at least 80% each time.
Turning to `Cc1cc(C2(C(F)(F)C(F)(F)C(F)(F)F)CC(c3ccc(Cl)cc3)=NO2)ccc1NC(=O)c1cccc(I)c1C(=O)NC(C)C` (stereo not drawn) [2-059, N^1-[4-[3-(4-chlorophenyl)-5-heptafluoropropyl-4,5-dihydroisoxazol-5-yl]-2-methylphenyl]-3-iodo-N^2-isopropylphthalic diamide], the pest or weed control at 100 ppm in assay [1] and in assay [2] was at least 80% each time.
`CSCC(C)NC(=O)c1c(I)cccc1C(=O)Nc1ccc(C2(C(F)(F)F)CC(c3ccc(Cl)cc3)=NO2)cc1C` (stereo not drawn) [2-095, N^1-[4-[3-(4-chlorophenyl)-5-trifluoromethyl-4,5-dihydroisoxazol-5-yl]-2-methylphenyl]-3-iodo-N^2-(1-methyl-2-methylthioethyl)phthalic diamide]: the pest or weed control at 100 ppm in assay [1] (setting [3]) and in assay [2] (setting [3]) was at least 80% each time.
`CCN(CC)C(=O)c1c(I)cccc1C(=O)Nc1ccc(C2(C(F)(F)F)CC(c3ccc(S(C)(=O)=O)cc3)=NO2)cc1C` (stereo not drawn) [2-162, N^2, N^2-diethyl-3-iodo-N^1-[4-[3-(4-methylsulfonylphenyl)-5-trifluoromethyl-4,5-dihydroisoxazol-5-yl]-2-methylphenyl]phthalic diamide]: the pest or weed control at 100 ppm in assay [2] (setting [3]) is at least 80%.
Consider `Cc1cc(C2(C(F)(F)F)CC(c3ccc(F)cc3)=NO2)ccc1NC(=O)c1cccc([N+](=O)[O-])c1C(=O)NC(C)C` (stereo not drawn) [2-167, N^1-[4-[3-(4-fluorophenyl)-5-trifluoromethyl-4,5-dihydroisoxazol-5-yl]-2-methylphenyl]-3-nitro-N^2-isopropylphthalic diamide], for which the pest or weed control at 100 ppm in assay [1] (setting [3]) and in assay [2] (setting [3]) was at least 80% each time.
With `Cc1cc(C2(C(F)(F)F)CC(c3ccc(F)cc3)=NO2)ccc1NC(=O)c1cccc(N)c1C(=O)NC(C)C` (stereo not drawn) [2-170, 3-Amino-N^1-[4-[3-(4-fluorophenyl)-5-trifluoromethyl-4,5-dihydroisoxazol-5-yl]-2-methylphenyl]-N^2-isopropylphthalic diamide], the pest or weed control at 100 ppm in assay [1] (setting [3]) and in assay [2] (setting [3]) was at least 80% each time.
Consider `CC1=NOC(c2ccc(Cl)cc2)(c2ccc(NC(=O)c3cccc(I)c3C(=O)NC(C)C)c(C)c2)C1` (stereo not drawn) [3-006, N^1-[4-[5-(4-chlorophenyl)-3-methyl-4,5-dihydroisoxazol-5-yl]-2-methylphenyl]-3-iodo-N^2-isopropylphthalic diamide], for which the pest or weed control at 100 ppm in assay [1] (setting [3]) and in assay [2] (setting [3]) was at least 80% each time.
Consider `Cc1cc(C2(C(F)(F)F)CC(C#N)=C(c3ccccc3)O2)ccc1NC(=O)c1cccc(I)c1C(=O)NC(C)C` (stereo not drawn) [4-01, N^1-[4-(3-cyano-2-phenyl-5-trifluoromethyl-4,5-dihydrofuran-5-yl)-2-methylphenyl]-3-iodo-N 2-isopropylphthalic diamide], for which, in assay [2] (setting [3]), the pest or weed control at 100 ppm is at least 80%.
As to `Cc1cc(C2(C(F)(F)F)CN=C(c3ccc(Cl)cc3)S2)ccc1NC(=O)c1cccc(I)c1C(=O)NC(C)C` (stereo not drawn) [4-04, N^1-[4-[2-(4-chlorophenyl)-5-trifluoromethyl-4,5-dihydrothiazol-5-yl]-2-methylphenyl]-3-iodo-N^2-isopropylphthalic diamide], the pest or weed control at 100 ppm in assay [1] (setting [3]) and in assay [2] (setting [3]) was at least 80% throughout.
Consider `Cc1cc(C2(C(F)(F)F)ON=C(c3ccc(F)cc3)O2)ccc1NC(=O)c1cccc(I)c1C(=O)NC(C)C` (stereo not drawn) [4-05, N^1-[4-[3-(4-fluorophenyl)-5-trifluoromethyl-1,4,2-dioxazolin-5-yl]-2-methylphenyl]-3-iodo-N 2-isopropylphthalic diamide], for which the pest or weed control at 100 ppm in assay [1] (setting [3]) and in assay [2] (setting [3]) was at least 80% in each case.
For `CC1=NN(c2ccc(Cl)cc2)C(c2ccc(NC(=O)c3cccc(I)c3C(=O)NC(C)C)c(C)c2)C1` (stereo not drawn) [6-02, N^1-[4-[1-(4-chlorophenyl)-3-methyl-4,5-dihydropyrazol-5-yl]-2-methylphenyl]-3-iodo-N^2-isopropylphthalic diamide], in assay [2] (setting [3]), the pest or weed control at 100 ppm is at least 80%.
Turning to `Cc1cc(C2(C(F)(F)F)CC(c3ccc(Cl)cc3)=NN2C)ccc1NC(=O)c1cccc(I)c1C(=O)NC(C)C` (stereo not drawn) [6-04, N^1-[4-[3-(4-chlorophenyl)-1-methyl-5-trifluoromethyl-4,5-dihydropyrazol-5-yl]-2-methylphenyl]-3-iodo-N^2-isopropylphthalic diamide], the pest or weed control at 100 ppm in assay [1] (setting [3]) and in assay [2] (setting [3]) was at least 80% throughout.
For the compound `Cc1cc(C2(C(F)(F)F)OCC(c3ccc(Cl)cc3)O2)ccc1NC(=O)c1cccc(I)c1C(=O)NC(C)C` (stereo not drawn) [7-03, N^1-[4-[4-(4-chlorophenyl)-2-trifluoromethyl-1,3-dioxolan-2-yl]-2-methylphenyl]-3-iodo-N^2-isopropylphthalic diamide], the pest or weed control at 100 ppm in assay [1] (setting [3]) and in assay [2] (setting [3]) was at least 80% each time.
As to `Cc1cc(C2(C(F)(F)F)OCC(c3ccc(Cl)cc3)S2)ccc1NC(=O)c1cccc(I)c1C(=O)NC(C)C` (stereo not drawn) [7-09, N^1-[4-[4-(4-chlorophenyl)-2-trifluoromethyl-1,3-oxathiolan-2-yl]-2-methylphenyl]-3-iodo-N^2-isopropylphthalic diamide], the pest or weed control at 100 ppm in assay [2] (setting [3]) is at least 80%.
